Laboratory results reported in patent publication US11753407B2, “Compounds for treating spinal muscular atrophy” (PTC Therapeutics, Inc., priority 2012, dated 2023).

Tests used:
[1] = tested on: SMN2 minigene mRNA (SMN2-A minigene) in HEK293H cells; test: SMN2 minigene mRNA splicing RT-qPCR assay in cultured cells; assay type: cell-based, human; details: Homo sapiens, HEK293-H; concentration increasing full length SMN2 mRNA 1.5-fold relative to vehicle-treated cells; HEK293H cells with SMN2-A minigene, 24 hours, 7-point concentration data; read-out: EC1.5x for production of full length SMN2 mRNA
Procedure, shortened: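 Read-out: minigene-specific full-length (exon 7-included) SMN2 mRNA by one-step multiplex RT-qPCR, normalized to GAPDH and divided by vehicle-treated level. Stable SMN2-A minigene HEK293H cells, 24 h compound exposure, 7 concentrations in duplicate. EC1.5× = concentration raising FL mRNA 1.5-fold.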

[2] = tested on: Smn protein in SMA patient fibroblast cells (GM03813); test: Smn protein assay in cultured cells (SMN HTRF); assay type: cell-based, human; details: SMA patient fibroblast cells, 48 hours; for EC1.5x for Smn protein expression: 7-point concentration curve, SMN HTRF, concentration producing 1.5 times Smn protein vs DMSO vehicle control; for maximum fold (Fold) increase of Smn protein: 7-point concentration data, fold relative to vehicle control
Procedure, shortened: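 Read-out: HTRF 665/620 nm ratio, blank-subtracted as ΔF, then expressed as fold over DMSO vehicle. Fibroblasts from SMA patients were exposed to compounds for 48 h (7 points, 3.16-fold steps, triplicates). Values are EC1.5× and maximum fold Smn increase.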

SMILES	EC (1.5-fold increase) [1] [µM]	EC1.5x for Smn protein expression [2]	maximum fold (Fold) increase of Smn protein [2]
CCc1cc(-c2cc(=O)n3cc(N4CCN(C5CCC5)[C@@H](C)C4)ccc3n2)cn2cc(C)nc12 [Compound 652, 7-[(3S)-4-cyclobutyl-3-methylpiperazin-1-yl]-2-(8-ethyl-2-methylimidazo[1,2-a]pyridin-6-yl)-4H-pyrido[1,2-a]pyrimidin-4-one]	< 0.1	**** (an EC1.5x≤0.3 μM is indicated by four stars (****))	***** (a fold increase >1.65 is indicated by five stars (*****))
CCc1nc(C)cn2nc(-c3cc(=O)n4cc(C5CCNCC5)ncc4n3)cc12 [Compound 653, 2-(4-ethyl-6-methylpyrazolo[1,5-a]pyrazin-2-yl)-7-(piperidin-4-yl)-4H-pyrazino[1,2-a]pyrimidin-4-one]	< 0.1	**** (an EC1.5x≤0.3 μM is indicated by four stars (****))	***** (a fold increase >1.65 is indicated by five stars (*****))
Cc1cn2nc(-c3cc(=O)n4cc(N5CCN(CCOCCO)[C@H](C)C5)cc(C)c4n3)cc2c(C)n1 [Compound 670, 2-(4,6-dimethylpyrazolo[1,5-a]pyrazin-2-yl)-7-{(3R)-4-[2-(2-hydroxyethoxy)ethyl]-3-methylpiperazin-1-yl}-9-methyl-4H-pyrido[1,2-a]pyrimidin-4-one]	< 0.1	**** (an EC1.5x≤0.3 μM is indicated by four stars (****))	***** (a fold increase >1.65 is indicated by five stars (*****))
Cc1cn2nc(-c3cc(=O)n4cc(C5CCN(C)CC5)cc(C)c4n3)cc2c(C)n1 [Compound 672, 2-(4,6-dimethylpyrazolo[1,5-a]pyrazin-2-yl)-9-methyl-7-(1-methylpiperidin-4-yl)-4H-pyrido[1,2-a]pyrimidin-4-one]	< 0.1	**** (an EC1.5x≤0.3 μM is indicated by four stars (****))	***** (a fold increase >1.65 is indicated by five stars (*****))
CCc1cc(-c2cc(=O)n3cc(N4C[C@@H](C)N[C@@H](C)C4)ccc3n2)cn2cc(C)nc12 [Compound 675, 7-[(3R,5S)-3,5-dimethylpiperazin-1-yl]-2-(8-ethyl-2-methylimidazo[1,2-a]pyridin-6-yl)-4H-pyrido[1,2-a]pyrimidin-4-one]	< 0.1	**** (an EC1.5x≤0.3 μM is indicated by four stars (****))	***** (a fold increase >1.65 is indicated by five stars (*****))
CCc1cc(-c2cc(=O)n3cc(N4CCCN(C)CC4)ccc3n2)cn2cc(C)nc12 [Compound 676, 2-(8-ethyl-2-methylimidazo[1,2-a]pyridin-6-yl)-7-(4-methyl-1,4-diazepan-1-yl)-4H-pyrido[1,2-a]pyrimidin-4-one]	< 0.1	*** (an EC1.5× between >0.3 μM and ≤1 μM is indicated by three stars (***))	***** (a fold increase >1.65 is indicated by five stars (*****))
CCN1CCC(c2cc(C)c3nc(-c4cc5c(C)nc(C)cn5n4)cc(=O)n3c2)CC1 [Compound 702, 2-(4,6-dimethylpyrazolo[1,5-a]pyrazin-2-yl)-7-(1-ethylpiperidin-4-yl)-9-methyl-4H-pyrido[1,2-a]pyrimidin-4-one]	< 0.1	**** (an EC1.5x≤0.3 μM is indicated by four stars (****))	***** (a fold increase >1.65 is indicated by five stars (*****))
Cc1cn2cc(-c3cc(=O)n4cc(N5CCN[C@H](C)C5)ccc4n3)cc2c(C)n1 [Compound 713, 2-(1,3-dimethylpyrrolo[1,2-a]pyrazin-7-yl)-7-[(3R)-3-methylpiperazin-1-yl]-4H-pyrido[1,2-a]pyrimidin-4-one]	< 0.1	**** (an EC1.5x≤0.3 μM is indicated by four stars (****))	***** (a fold increase >1.65 is indicated by five stars (*****))
Cc1cn2nc(-c3cc(=O)n4cc(CCCN)ccc4n3)cc2c(C)n1 [Compound 742, 7-(3-aminopropyl)-2-(4,6-dimethylpyrazolo[1,5-a]pyrazin-2-yl)-4H-pyrido[1,2-a]pyrimidin-4-one]	0.1 to 0.3	*** (an EC1.5× between >0.3 μM and ≤1 μM is indicated by three stars (***))	***** (a fold increase >1.65 is indicated by five stars (*****))
Cc1cc(N2CCN[C@H](C)C2)cn2c(=O)cc(-c3ccc4nn(C)cc4c3)nc12 [Compound 755, 9-methyl-2-(2-methyl-2H-indazol-5-yl)-7-[(3R)-3-methylpiperazin-1-yl]-4H-pyrido[1,2-a]pyrimidin-4-one]	< 0.1	**** (an EC1.5x≤0.3 μM is indicated by four stars (****))	***** (a fold increase >1.65 is indicated by five stars (*****))
Cc1cc(N2CCN[C@@H](C)C2)cn2c(=O)cc(-c3ccc4nn(C)cc4c3)nc12 [Compound 756, 9-methyl-2-(2-methyl-2H-indazol-5-yl)-7-[(3S)-3-methylpiperazin-1-yl]-4H-pyrido[1,2-a]pyrimidin-4-one]	< 0.1	**** (an EC1.5x≤0.3 μM is indicated by four stars (****))	***** (a fold increase >1.65 is indicated by five stars (*****))
CCc1nc(C)cn2nc(-c3cc(=O)n4cc(C5=CCNCC5)cc(C)c4n3)cc12 [Compound 773, 2-(4-ethyl-6-methylpyrazolo[1,5-a]pyrazin-2-yl)-9-methyl-7-(1,2,3,6-tetrahydropyridin-4-yl)-4H-pyrido[1,2-a]pyrimidin-4-one]	< 0.1	**** (an EC1.5x≤0.3 μM is indicated by four stars (****))	***** (a fold increase >1.65 is indicated by five stars (*****))
CCc1nc(C)cn2nc(-c3cc(=O)n4cc(C5CCN(C)CC5)cc(C)c4n3)cc12 [Compound 774, 2-(4-ethyl-6-methylpyrazolo[1,5-a]pyrazin-2-yl)-9-methyl-7-(1-methylpiperidin-4-yl)-4H-pyrido[1,2-a]pyrimidin-4-one]	< 0.1	**** (an EC1.5x≤0.3 μM is indicated by four stars (****))	***** (a fold increase >1.65 is indicated by five stars (*****))
CCNC[C@@H]1CCN(c2ccc3nc(-c4cc5c(C)nc(C)cn5n4)cc(=O)n3c2)C1 [Compound 779, 2-(4,6-dimethylpyrazolo[1,5-a]pyrazin-2-yl)-7-{(3S)-3-[(ethylamino)methyl]pyrrolidin-1-yl}-4H-pyrido[1,2-a]pyrimidin-4-one]	< 0.1	**** (an EC1.5x≤0.3 μM is indicated by four stars (****))	***** (a fold increase >1.65 is indicated by five stars (*****))
CCc1nc(C)cn2nc(-c3cc(=O)n4cc(C5CCN(CC)CC5)cc(C)c4n3)cc12 [Compound 790, 2-(4-ethyl-6-methylpyrazolo[1,5-a]pyrazin-2-yl)-7-(1-ethylpiperidin-4-yl)-9-methyl-4H-pyrido[1,2-a]pyrimidin-4-one]	< 0.1	**** (an EC1.5x≤0.3 μM is indicated by four stars (****))	***** (a fold increase >1.65 is indicated by five stars (*****))
